Laboratory results from patent publication US20230077362A1 (CORTEVA AGRISCIENCE LLC, priority 2019, published 2023).
Read-outs that look alike come from different tables or passages of the source.

Key:
Format in all cases: in vivo
[1] = tested on: Green Peach Aphid ("GPA") (Myzus persicae), wingless adult and nymph stages; test: Bioassay on green peach aphid (GPA), foliar spray on infested cabbage seedlings; conditions: Myzus persicae, foliar, 72 h
Summary of the method: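 Values are corrected % control, 100*(X−Y)/X, from live aphid counts per plant under a microscope, treated versus solvent-check plants. Four infested seedlings (20-50 GPA each) per treatment were sprayed to runoff and kept three days near 25° C at ambient RH.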

[2] = tested on: Beet Armyworm (Spodoptera exigua) ("BAW"), second instar larvae; test: Bioassay on beet armyworm (BAW), 128-well diet tray assay; conditions: Spodoptera exigua
Summary of the method: (§1)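 Each value represents average percent mortality from eight wells. Larvae were kept in clear-covered trays at 25° C. for five to seven days on a 14-hour light, 10-hour dark schedule before scoring.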

[3] = tested on: Cabbage Looper (Trichoplusia ni) ("CL"), second instar larvae; test: Bioassay on cabbage looper (CL), 128-well diet tray assay; conditions: Trichoplusia ni
Summary of the method: as §1

[4] = read-out: GPA (Biological Results, rating)
[5] = read-out: BAW (Biological Results, rating)
[6] = read-out: CL (Biological Results, rating)

Row | SMILES | pest or weed control at 200 µg/mL [1, 4] [%] | pest or weed control at 50 µg/cm2 [2, 5] [%] | pest or weed control at 50 µg/cm2 [3, 6] [%] | pest or weed control at 200 µg/mL ([1]; read-out: GPA rating) [%] | pest or weed control at 50 µg/cm2 ([2]; read-out: BAW rating) [%] | pest or weed control at 50 µg/cm2 ([3]; read-out: CL rating) [%]
1 | Cc1ccc(OCCC(F)(F)F)c(N2C(=O)CS/C2=N\C(=O)Nc2ccc(-c3ncn(-c4cccc(C(F)(F)F)c4)n3)cc2)c1 [Compound J326, (Z)-1-(3-(5-Methyl-2-(3,3,3-trifluoropropoxy)phenyl)-4-oxothiazolidin-2-ylidene)-3-(4-(1-(3-(trifluoromethyl)phenyl)-1H-1,2,4-triazol-3-yl)phenyl)urea] | 0 to 80 | 50 to 100 | 50 to 100 |  |  | 
2 | Cc1ccc(C(C)C)c(N2C(=O)CS/C2=N\C(=O)Nc2ccc(-c3ncn(-c4cccc(OC(F)(F)F)c4)n3)cc2)c1 [Compound J327, (Z)-1-(3-(2-Isopropyl-5-methylphenyl)-4-oxothiazolidin-2-ylidene)-3-(4-(1-(3-(trifluoromethoxy)phenyl)-1H-1,2,4-triazol-3-yl)phenyl)urea] | 0 to 80 | 50 to 100 | 50 to 100 |  |  | 
3 | COc1ccc(C(C)C)c(N2C(=O)CS/C2=N\C(=O)Nc2ccc(-c3ncn(-c4cccc(OC(F)(F)F)c4)n3)cc2)c1 [Compound J328, (Z)-1-(3-(2-Isopropyl-5-methoxyphenyl)-4-oxothiazolidin-2-ylidene)-3-(4-(1-(3-(trifluoromethoxy)phenyl)-1H-1,2,4-triazol-3-yl)phenyl)urea] | 0 to 80 | 50 to 100 | 50 to 100 |  |  | 
4 | Cc1ccc(C(C)C)c(N2C(=O)CS/C2=N\C(=O)Nc2ccc(-c3ncn(-c4ccc(OCC#N)cc4)n3)cc2F)c1 [Compound J344, (Z)-1-(4-(1-(4-(Cyanomethoxy)phenyl)-1H-1,2,4-triazol-3-yl)-2-fluorophenyl)-3-(3-(2-isopropyl-5-methylphenyl)-4-oxothiazolidin-2-ylidene)urea] | 0 to 80 | 50 to 100 | 50 to 100 |  |  | 
5 | COC(C)c1ccc(C)cc1N1C(=O)CS/C1=N\C(=O)Nc1ccc(-c2ncn(-c3ccc(SC(F)(F)F)cc3)n2)cc1 (stereo not drawn) [Compound J350, (Z)-1-(3-(2-(1-methoxyethyl)-5-methylphenyl)-4-oxothiazolidin-2-ylidene)-3-(4-(1-(4-((trifluoromethyl)thio)phenyl)-1H-1,2,4-triazol-3-yl)phenyl)urea] | 0 to 80 | 50 to 100 | 50 to 100 |  |  | 
6 | COC(C)c1ccc(C)cc1N1C(=O)CS/C1=N\C(=O)Nc1ccc(-c2ncn(-c3ccc(S(=O)(=O)C(F)(F)F)cc3)n2)cc1C (stereo not drawn) [Compound J362, (Z)-1-(3-(2-(1-Methoxyethyl)-5-methylphenyl)-4-oxothiazolidin-2-ylidene)-3-(2-methyl-4-(1-(4-((trifluoromethyl)sulfonyl)phenyl)-1H-1,2,4-triazol-3-yl)phenyl)urea] |  |  |  | 0 to 80 | 50 to 100 | 50 to 100
7 | Cc1ccc(COCC(F)(F)F)c(N2C(=O)CS/C2=N\C(=O)Nc2ccc(-c3ncn(-c4ccc(S(=O)(=O)C(F)(F)F)cc4)n3)cc2F)c1 [Compound J363, (Z)-1-(2-Fluoro-4-(1-(4-((trifluoromethyl)sulfonyl)phenyl)-1H-1,2,4-triazol-3-yl)phenyl)-3-(3-(5-methyl-2-((2,2,2-trifluoroethoxy)methyl)phenyl)-4-oxothiazolidin-2-ylidene)urea] |  |  |  | 0 to 80 | 50 to 100 | 50 to 100
8 | CC(C)c1ccc(N(C)C)cc1N1C(=O)CS/C1=N\C(=O)Nc1ccc(-c2ncn(-c3ccc(S(=O)(=O)C(F)(F)F)cc3)n2)cc1F [Compound J364, (Z)-1-(3-(5-(Dimethylamino)-2-isopropylphenyl)-4-oxothiazolidin-2-ylidene)-3-(2-fluoro-4-(1-(4-((trifluoromethyl)sulfonyl)phenyl)-1H-1,2,4-triazol-3-yl)phenyl)urea] |  |  |  | 0 to 80 | 50 to 100 | 50 to 100
9 | Cc1ccc(COCC(F)(F)F)c(N2C(=O)CS/C2=N\C(=O)Nc2ccc(-c3ncn(-c4ccc(S(=O)(=O)C(F)(F)F)cc4)n3)cc2C)c1 [Compound J365, (Z)-1-(3-(5-Methyl-2-((2,2,2-trifluoroethoxy)methyl)phenyl)-4-oxothiazolidin-2-ylidene)-3-(2-methyl-4-(1-(4-((trifluoromethyl)sulfonyl)phenyl)-1H-1,2,4-triazol-3-yl)phenyl)urea] |  |  |  | 0 to 80 | 50 to 100 | 50 to 100
10 | Cc1cc(-c2ncn(-c3ccc(S(=O)(=O)C(F)(F)F)cc3)n2)ccc1NC(=O)/N=C1\SCC(=O)N1c1cc(N(C)C)ccc1C(C)C [Compound J366, (Z)-1-(3-(5-(Dimethylamino)-2-isopropylphenyl)-4-oxothiazolidin-2-ylidene)-3-(2-methyl-4-(1-(4-((trifluoromethyl)sulfonyl)phenyl)-1H-1,2,4-triazol-3-yl)phenyl)urea] |  |  |  | 0 to 80 | 50 to 100 | 50 to 100
11 | CC(C)c1ccc(N(C)C)cc1N1C(=O)CS/C1=N\C(=O)Nc1ccc(-c2ncn(-c3ccc(SC(F)(F)F)cc3)n2)cc1 [Compound J368, (Z)-1-(3-(5-(Dimethylamino)-2-isopropylphenyl)-4-oxothiazolidin-2-ylidene)-3-(4-(1-(4-((trifluoromethyl)thio)phenyl)-1H-1,2,4-triazol-3-yl)phenyl)urea] |  |  |  | 0 to 80 | 50 to 100 | 50 to 100
12 | Cc1ccc(COCc2ccc(OC(F)(F)F)cc2)c(N2C(=O)CS/C2=N\C(=O)Nc2ccc(-c3ncn(-c4ccc(OC(F)(F)F)cc4)n3)cc2F)c1 [Compound J570, (Z)-1-(2-Fluoro-4-(1-(4-(trifluoromethoxy)phenyl)-1H-1,2,4-triazol-3-yl)phenyl)-3-(3-(5-methyl-2-(((4-(trifluoromethoxy)benzyl)oxy)methyl)phenyl)-4-oxothiazolidin-2-ylidene)urea] |  |  |  | 0 to 80 | 50 to 100 | 50 to 100
13 | Cc1ccc(COCc2ccc(F)cc2)c(N2C(=O)CS/C2=N\C(=O)Nc2ccc(-c3ncn(-c4ccc(OC(F)(F)F)cc4)n3)cc2F)c1 [Compound J574, (Z)-1-(2-Fluoro-4-(1-(4-(trifluoromethoxy)phenyl)-1H-1,2,4-triazol-3-yl)phenyl)-3-(3-(2-(((4-fluorobenzyl)oxy)methyl)-5-methylphenyl)-4-oxothiazolidin-2-ylidene)urea] |  |  |  | 0 to 80 | 50 to 100 | 50 to 100
14 | CCOCc1ccc(C)cc1N1C(=O)CS/C1=N\C(=O)Nc1ccc(-c2cn(-c3ccc(S(=O)(=O)C(F)(F)F)cc3)cn2)cc1F [Compound J646, (Z)-1-(3-(2-(Ethoxymethyl)-5-methylphenyl)-4-oxothiazolidin-2-ylidene)-3-(2-fluoro-4-(1-(4-((trifluoromethyl)sulfonyl)phenyl)-1H-imidazol-4-yl)phenyl)urea] |  |  |  | 0 to 80 | 50 to 100 | 50 to 100
15 | Cc1ccc(COCC(F)(F)F)c(N2C(=O)CS/C2=N\C(=O)Nc2ccc(-c3cn(-c4ccc(S(=O)(=O)C(F)(F)F)cc4)cn3)cc2F)c1 [Compound J647, (Z)-1-(2-Fluoro-4-(1-(4-((trifluoromethyl)sulfonyl)phenyl)-1H-imidazol-4-yl)phenyl)-3-(3-(5-methyl-2-((2,2,2-trifluoroethoxy)methyl)phenyl)-4-oxothiazolidin-2-ylidene)urea] |  |  |  | 0 to 80 | 50 to 100 | 50 to 100
16 | Cc1ccc(COCC(F)F)c(N2C(=O)CS/C2=N\C(=O)Nc2ccc(-c3cn(-c4ccc(S(=O)(=O)C(F)(F)F)cc4)cn3)cc2F)c1 [Compound J648, (Z)-1-(3-(2-((2,2-Difluoroethoxy)methyl)-5-methylphenyl)-4-oxothiazolidin-2-ylidene)-3-(2-fluoro-4-(1-(4-((trifluoromethyl)sulfonyl)phenyl)-1H-imidazol-4-yl)phenyl)urea] |  |  |  | 0 to 80 | 50 to 100 | 50 to 100
17 | COC(c1ccc(C)cc1N1C(=O)CS/C1=N\C(=O)Nc1ccc(-c2cn(-c3ccc(S(=O)(=O)C(F)(F)F)cc3)cn2)cc1F)C(F)(F)F (stereo not drawn) [Compound J649, (Z)-1-(2-Fluoro-4-(1-(4-((trifluoromethyl)sulfonyl)phenyl)-1H-imidazol-4-yl)phenyl)-3-(3-(5-methyl-2-(2,2,2-trifluoro-1-methoxyethyl)phenyl)-4-oxothiazolidin-2-ylidene)urea] |  |  |  | 0 to 80 | 50 to 100 | 50 to 100
18 | CC(C)c1ccc(N(C)C)cc1N1C(=O)CS/C1=N\C(=O)Nc1ccc(-c2cn(-c3ccc(S(=O)(=O)C(F)(F)F)cc3)cn2)cc1F [Compound J650, (Z)-1-(3-(5-(Dimethylamino)-2-isopropylphenyl)-4-oxothiazolidin-2-ylidene)-3-(2-fluoro-4-(1-(4-((trifluoromethyl)sulfonyl)phenyl)-1H-imidazol-4-yl)phenyl)urea] |  |  |  | 0 to 80 | 50 to 100 | 50 to 100
